Measured values: publication PMC5933782, “Molecular structures of cdc2-like kinases in complex with a new inhibitor chemotype” (PLoS ONE, 2018)

Key:
[1] = system: EKVX; assay: NCI cancer cell line screening; type: cell-based; details: Homo sapiens, Non-Small Cell Lung Cancer
Procedure: (§1) Being the most promising compound in terms of CLK1 inhibitory potency and selectivity, KuWal151 (8c) was tested in the National Cancer Institute cancer cell line screening on 57 tumor cell lines of different tissue origin [45]. With only a few exceptions, KuWal151 inhibited the growth of most cell lines in submicromolar concentrations. In Table 2 the cancer cell line inhibition data is listed with the expression rates of SPF45 and CLK1 as indicated in the Expression Atlas database (https://www.ebi.ac.uk/gxa/home). Apparently the cell lines with high levels of CLK1 encoding RNA are inhibited over average. […] However, the available data are not sufficient to construe a clear relationship between the expression levels of the putative target CLK1 and sensitivity of the cell lines against 8c. The same holds true for SPF45, an important substrate of CLK1 involved in splicing which is found to be overexpressed in many cancer cell lines. […] The lack of a straight relationship between CLK1 and/or SPF45 expression levels on the one hand and sensitivity against the CLK1 inhibitor 8c on the other hand may have various reasons, e.g. different uptake rates of the inhibitor by the cells or alternative intracellular targets. For verification of the results from the NCI screening, which is based on the in situ fixation of cells followed by staining with the protein-binding dye sulforhodamin B [47, 48], 8c was also tested on two cell lines of the NCI panel (HT-29 and MDA-MB-231) in a crystal violet assay.

[2] = system: NCI-H226; assay: NCI cancer cell line screening; type: cell-based; details: Homo sapiens; NCI-H226, Non-Small Cell Lung Cancer
Procedure: as §1

[3] = system: DU-145; assay: NCI cancer cell line screening; type: cell-based; details: Homo sapiens; DU-145, Prostate Cancer
Procedure: as §1

[4] = system: T-47D; assay: NCI cancer cell line screening; type: cell-based; details: Homo sapiens, T47D, Breast Cancer
Procedure: as §1

[5] = system: OVCAR-8; assay: NCI cancer cell line screening; type: cell-based; details: Homo sapiens; OVCAR-8, Ovarian Cancer
Procedure: as §1

[6] = system: MOLT-4; assay: NCI cancer cell line screening; type: cell-based; details: Homo sapiens; MOLT-4, Leukemia
Procedure: as §1

[7] = system: HT29; assay: NCI cancer cell line screening; type: cell-based; details: Homo sapiens, HT-29; HT29, Colon Cancer
Procedure: as §1

[8] = system: PC-3; assay: NCI cancer cell line screening; type: cell-based; details: Homo sapiens; PC-3, Prostate Cancer
Procedure: as §1

[9] = system: HCT-15; assay: NCI cancer cell line screening; type: cell-based; details: Homo sapiens; HCT-15, Colon Cancer
Procedure: as §1

[10] = system: SNB-75; assay: NCI cancer cell line screening; type: cell-based; details: Homo sapiens; SNB-75, CNS Cancer
Procedure: as §1

[11] = system: SK-MEL-28; assay: NCI cancer cell line screening; type: cell-based; details: Homo sapiens; SK-MEL-28, Melanoma
Procedure: as §1

[12] = system: HL-60(TB); assay: NCI cancer cell line screening; type: cell-based; details: Homo sapiens, Leukemia
Procedure: as §1

[13] = system: HOP-92; assay: NCI cancer cell line screening; type: cell-based; details: Homo sapiens; HOP-92, Non-Small Cell Lung Cancer
Procedure: as §1

[14] = system: OVCAR-3; assay: NCI cancer cell line screening; type: cell-based; details: Homo sapiens; OVCAR-3, Ovarian Cancer
Procedure: as §1

[15] = system: SF-268; assay: NCI cancer cell line screening; type: cell-based; details: Homo sapiens; SF-268, CNS Cancer
Procedure: as §1

[16] = system: M14; assay: NCI cancer cell line screening; type: cell-based; details: Homo sapiens; M14, Melanoma
Procedure: as §1

[17] = system: U251; assay: NCI cancer cell line screening; type: cell-based; details: Homo sapiens, U-251; U251, CNS Cancer
Procedure: as §1

[18] = system: MDA-MB-468; assay: NCI cancer cell line screening; type: cell-based; details: Homo sapiens; MDA-MB-468, Breast Cancer
Procedure: as §1

[19] = system: UACC-62; assay: NCI cancer cell line screening; type: cell-based; details: Homo sapiens; UACC-62, Melanoma
Procedure: as §1

[20] = system: SK-MEL-5; assay: NCI cancer cell line screening; type: cell-based; details: Homo sapiens; SK-MEL-5, Melanoma
Procedure: as §1

[21] = system: NCI/ADR-RES; assay: NCI cancer cell line screening; type: cell-based; details: Homo sapiens, Ovarian Cancer
Procedure: as §1

[22] = system: SF-295; assay: NCI cancer cell line screening; type: cell-based; details: Homo sapiens; SF-295, CNS Cancer
Procedure: as §1

[23] = system: IGROV1; assay: NCI cancer cell line screening; type: cell-based; details: Homo sapiens, IGROV-1; IGROV1, Ovarian Cancer
Procedure: as §1

[24] = system: NCI-H460; assay: NCI cancer cell line screening; type: cell-based; details: Homo sapiens; NCI-H460, Non-Small Cell Lung Cancer
Procedure: as §1

[25] = system: UO-31; assay: NCI cancer cell line screening; type: cell-based; details: Homo sapiens; UO-31, Renal Cancer
Procedure: as §1

[26] = system: NCI-H23; assay: NCI cancer cell line screening; type: cell-based; details: Homo sapiens; NCI-H23, Non-Small Cell Lung Cancer
Procedure: as §1

[27] = system: SK-MEL-2; assay: NCI cancer cell line screening; type: cell-based; details: Homo sapiens; SK-MEL-2, Melanoma
Procedure: as §1

[28] = system: TK-10; assay: NCI cancer cell line screening; type: cell-based; details: Homo sapiens; TK-10, Renal Cancer
Procedure: as §1

[29] = system: HCT-116; assay: NCI cancer cell line screening; type: cell-based; details: Homo sapiens; HCT-116, Colon Cancer
Procedure: as §1

[30] = system: HCC-2998; assay: NCI cancer cell line screening; type: cell-based; details: Homo sapiens; HCC-2998, Colon Cancer
Procedure: as §1

[31] = system: SR; assay: NCI cancer cell line screening; type: cell-based; details: Homo sapiens, Leukemia
Procedure: as §1

[32] = system: LOX IMVI; assay: NCI cancer cell line screening; type: cell-based; details: Homo sapiens, Melanoma
Procedure: as §1

[33] = system: COLO 205; assay: NCI cancer cell line screening; type: cell-based; details: Homo sapiens; COLO 205, Colon Cancer
Procedure: as §1

[34] = molecular target: DYRK1A (Homo sapiens, UniProt Q13627); assay: radiometric protein kinase assay; type: biochemical; details: 15 μmol/L ATP; read-out: IC50 DYRK 1A
[35] = molecular target: T1, CDK5/p25 (Homo sapiens, UniProt Q00535); assay: radiometric protein kinase assay; type: biochemical; details: 15 μmol/L ATP
T1 construct: made in house
T1 sequence (Q00535 whole entry): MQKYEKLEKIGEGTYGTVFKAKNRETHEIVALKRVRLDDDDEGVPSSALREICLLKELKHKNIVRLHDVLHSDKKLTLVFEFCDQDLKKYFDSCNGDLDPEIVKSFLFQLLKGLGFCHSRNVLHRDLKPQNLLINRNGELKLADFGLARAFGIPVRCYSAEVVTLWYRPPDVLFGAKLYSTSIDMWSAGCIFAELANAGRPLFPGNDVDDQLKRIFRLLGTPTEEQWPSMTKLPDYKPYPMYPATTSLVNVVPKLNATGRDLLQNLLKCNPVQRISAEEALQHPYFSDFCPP
T1 sequence (Q15078 99-307 partner limits assumed): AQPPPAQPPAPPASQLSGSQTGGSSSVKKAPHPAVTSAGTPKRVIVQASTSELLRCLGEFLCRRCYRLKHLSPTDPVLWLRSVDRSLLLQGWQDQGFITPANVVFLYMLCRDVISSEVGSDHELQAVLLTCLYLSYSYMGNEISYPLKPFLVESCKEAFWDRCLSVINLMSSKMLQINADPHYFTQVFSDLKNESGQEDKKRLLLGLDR

With `O=C1NCc2ccc3c(-c4cccc(Cl)c4)c[nH]c3c21` [8c, 3-(3-Chlorophenyl)-6,7-dihydropyrrolo[3,4-g]indol-8(1H)-one] the GI50 [1] was 355 nM, the GI50 [2] was 28800 nM and the GI50 [3] was 316 nM. It also gave a GI50 [4] of 309 nM, a GI50 [5] of 724 nM and a GI50 [6] of 257 nM. The GI50 [7] was 174 nM, the GI50 [8] was 339 nM and the GI50 [9] was 178 nM. For the same molecule, the GI50 [10] was 151 nM, the GI50 [11] was 692 nM and the GI50 [12] was 141 nM. For the same molecule, the GI50 [13] was 5620 nM, the GI50 [14] was 191 nM and the GI50 [15] was 437 nM. It also gave a GI50 [16] of 132 nM, a GI50 [17] of 263 nM and a GI50 [18] of 234 nM. It also gave a GI50 [19] of 275 nM, a GI50 [20] of 407 nM and a GI50 [21] of 178 nM. For the same molecule, the GI50 [22] was 224 nM, the GI50 [23] was 427 nM and the GI50 [24] was 209 nM. For the same molecule, the GI50 [25] was 832 nM, the GI50 [26] was 525 nM and the GI50 [27] was 316 nM. The GI50 [28] was 10200 nM, the GI50 [29] was 191 nM and the GI50 [30] was 912 nM. It also gave a GI50 [31] of 151 nM, a GI50 [32] of 245 nM and a GI50 [33] of 209 nM. The IC50 [34] was > 10000 nM and the IC50 [35] was > 10000 nM.
